Laboratory results published in paper PMC10974290, “Biocatalytic Synthesis of Coumarin S-Glycosides: Towards Non-Cytotoxic Probes for Biomedical Imaging and Sensing” (Molecules, 2024).

How the values were obtained:
[1] = system: SK-MEL-28 (melanoma skin cancer); test: MTT cell proliferation assay, SK-MEL-28; type: cell-based; settings: Homo sapiens, 72 h incubation, 95% confidence interval in parentheses
Procedure: (§1) To use these S-glycosidic compounds in cellulo, the potential impact of the glycosidic linkage nature on the anticancer activity was assessed. The S-glycoside derivatives and the 7-MC were tested against four human cancer cell lines and a healthy one, namely A549 (lung carcinoma), HS-683 (glioma cancer), MCF-7 (breast adenocarcinoma), SK-MEL-28 (melanoma skin cancer), and HaCaT (keratinocyte normal skin), using MTT (thiazolyl blue tetrazolium bromide, Sigma-Aldrich, St. Louis, MO, USA) assay, as previously described in the literature. The selected reference drugs were 5-fluorouracil (5-FU) and etoposide.
(§2) Cell proliferation of five distinct cell lines was evaluated using the colorimetric MTT (thiazolyl blue tetrazolium bromide, Sigma) assay. Human keratinocyte normal skin HaCaT was cultivated in DMEM supplemented with 4.5 g/L glucose, 2 mM L-glutamine, and 10% FBS. Cancer cell lines and their respective growth media were obtained from CLS Cell Line Service GmbH (Eppelheim, Germany). Specifically, human skin melanoma SK-MEL-28 and human brain glioma HS683 were cultivated in DMEM with identical supplements as HaCaT cells. The human lung carcinoma cell line A-549 was grown in DMEM/Ham’s F12 (1:1) medium supplemented with 2 mM L-glutamine and 5% FBS. Additionally, human breast adenoma carcinoma MCF-7 cells were sustained in EMEM supplemented with 2 mM L-glutamine, sodium pyruvate, non-essential amino acids (NEAAs), 10 µg/mL insulin human, and 10% FBS. The MTT assay relies on the reduction of the yellow product thiazolyl blue tetrazolium bromide (MTT) to formazan, a purple-blue product, by mitochondrial dehydrogenases in metabolically active cells. The number of living cells after incubation in the presence (or absence, control) of the tested molecules is directly proportional to the blue color, which was measured by spectrophotometry. To perform the assay, cells were initially seeded at a density of 2500 cells/mL in 96-well culture plates (Nunc™ Edge 2.0, Fisher) and allowed to adhere and proliferate over a 24-hour incubation period. Following this, the cells were treated with various concentrations of the tested compounds, which were previously prepared as serial dilutions and dissolved in 0.1% DMSO. These stable solutions guarantee the consistency of experimental conditions over extended periods. Each concentration of the tested compounds underwent triplicate testing (n = 3), and cells were subsequently incubated for 72 h to allow for thorough evaluation. Following this incubation period, MTT reagent (5 mg/mL solution in PBS) was introduced to each well (10% v/v), and cells were further incubated for 4 h. Then, the culture medium was carefully removed, and the resulting blue formazan crystals were dissolved in 100 µL of 100% DMSO. Absorbance readings were taken at 540 nm, referencing a wavelength of 620 nm, using a spectrophotometer. In determining the IC50, the absorbance of serial dilutions of each cell line, treated under identical conditions but without the presence of the tested compounds, was measured.

HS683 (brain glioma) = test: MTT cell proliferation assay, HS683; type: cell-based; settings: Homo sapiens, Hs 683, 72 h incubation, 95% confidence interval in parentheses
Procedure: as §1, §2

[2] = system: HaCaT (keratinocyte normal skin); test: MTT cell proliferation assay, HaCaT; type: cell-based; settings: Homo sapiens, 72 h incubation, 95% confidence interval in parentheses
Procedure: as §1, §2

A-549 (lung carcinoma) = test: MTT cell proliferation assay, A-549; type: cell-based, human; settings: 72 h incubation, 95% confidence interval in parentheses
Procedure: as §1, with “literature.” for “literature. The selected reference drugs were 5-fluorouracil (5-FU) and etoposide.”
as §2, with “These stable solutions guarantee the consistency of experimental conditions over extended periods.” left out

| Structure (SMILES) | IC50 [1] | IC50 (HS683 (brain glioma)) | IC50 (A-549 (lung carcinoma); Homo sapiens, A549, 72 h) | IC50 (A-549 (lung carcinoma)) | IC50 [2] |
| --- | --- | --- | --- | --- | --- |
| Cc1cc(=O)oc2cc(S[C@@H]3O[C@H](C(=O)O)[C@@H](O)[C@H](O)[C@H]3O)ccc12 [Compound S-1, 4-Methylumbellifer-7-yl 1-thio-β-D-glucopyranosiduronic acid] | > 1000 µM | > 1000 µM | > 1000 µM |  | > 1000 µM |
| Cc1cc(=O)oc2cc(S[C@@H]3O[C@H](C)[C@H](O)[C@H](O)[C@H]3O)ccc12 [Compound S-5, 4-Methylumbellifer-7-yl 1-thio-β-D-fucopyranoside] | > 1000 µM | > 1000 µM | > 1000 µM |  | > 1000 µM |
| Cc1cc(=O)oc2cc(S[C@@H]3O[C@H](CO)[C@H](O)[C@H](O)[C@H]3O)ccc12 [Compound S-4, 4-Methylumbellifer-7-yl 1-thio-β-D-galactopyranoside] | > 1000 µM | > 1000 µM | > 1000 µM |  | > 1000 µM |
| Cc1cc(=O)oc2cc(S[C@H]3O[C@H](CO)[C@H](O)[C@H](O)[C@H]3O)ccc12 [Compound S-6, 4-Methylumbellifer-7-yl 1-thio-α-D-galactopyranoside] | > 1000 µM | > 1000 µM | > 1000 µM |  | > 1000 µM |

Now from value to compound, other results behind:

| IC50 [1] | IC50 (HS683 (brain glioma)) | IC50 (A-549 (lung carcinoma); Homo sapiens, A549, 72 h) | IC50 (A-549 (lung carcinoma)) | Structure (SMILES) | IC50 [2] |
| --- | --- | --- | --- | --- | --- |
| > 1000 µM | > 1000 µM | > 1000 µM |  | Cc1cc(=O)oc2cc(S[C@@H]3O[C@H](CO)[C@@H](O)[C@H](O)[C@H]3O)ccc12 [Compound S-3, 4-Methylumbellifer-7-yl 1-thio-β-D-glucopyranoside] | > 1000 µM |
| 228 µM | 275 µM | 74 µM | 74.8 µM | Cc1cc(=O)oc2cc(S[C@@H]3OC[C@@H](O)[C@H](O)[C@H]3O)ccc12 [Compound S-2, 4-Methylumbellifer-7-yl 1-thio-β-D-xylopyranoside] | 162 µM |
| 306 µM |  | > 1000 µM |  | Cc1cc(=O)oc2cc(S)ccc12 [Compound 7-MC, 7-mercapto-4-methylcoumarin, reference compound] |  |
